The test concerns SARS-CoV-2 GFP/ΔN trVLP. The format is cell-based.

“And” between values parts separate entries of the source, which are not always exact repeats. Equal entries are not always repeated.

`Cc1cccc(C)c1OCC(=O)N[C@@H](Cc1ccccc1)[C@@H](O)C[C@H](Cc1ccccc1)NC(=O)[C@H](C(C)C)N1CCCNC1=O` [Lopinavir]: the IC50 (usually the point on the concentration scale where inhibition reaches its midpoint) was 8.7 µM and 8.75 µM.
The value for `CCC(CC)COC(=O)[C@H](C)N[P@](=O)(OC[C@H]1O[C@@](C#N)(c2ccc3c(N)ncnn23)[C@H](O)[C@@H]1O)Oc1ccccc1` [Remdesivir] was 0.0625 µM.
The value for `CC(C)c1nc(CN(C)C(=O)N[C@H](C(=O)N[C@@H](Cc2ccccc2)C[C@H](O)[C@H](Cc2ccccc2)NC(=O)OCc2cncs2)C(C)C)cs1` [Ritonavir] was 7.54 µM; that for GC376 was 4.5 µM.

The record behind these values is paper PMC7990224 (PLoS Pathogens, 2021).
